Measured values taken from PMC2728345 (Toxicology and applied pharmacology, 2009).
Changes are numbered by the printed parent chain. Entries after “also recorded” stand apart in the source; their conditions may differ.

Legend:
[1] = target: T1, rat PXR (Rattus norvegicus, UniProt Q9R1A7); assay: Activation of rat PXR, cotransfection with CYP3A4-DP-Luc in HepG2; details: 24 h
T1 sequence (Q9R1A7 1-431): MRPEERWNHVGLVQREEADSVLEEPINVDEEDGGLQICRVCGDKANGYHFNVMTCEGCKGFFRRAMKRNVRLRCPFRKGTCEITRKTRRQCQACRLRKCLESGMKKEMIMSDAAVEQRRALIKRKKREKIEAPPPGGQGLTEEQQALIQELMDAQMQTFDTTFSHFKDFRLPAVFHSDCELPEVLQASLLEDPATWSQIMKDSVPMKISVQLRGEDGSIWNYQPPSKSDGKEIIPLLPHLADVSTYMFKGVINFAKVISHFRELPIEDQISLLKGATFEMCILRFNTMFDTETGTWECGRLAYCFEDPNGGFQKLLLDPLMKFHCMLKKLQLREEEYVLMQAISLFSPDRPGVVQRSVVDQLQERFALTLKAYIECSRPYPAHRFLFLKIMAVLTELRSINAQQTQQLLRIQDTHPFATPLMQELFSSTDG

[2] = test system: CYP3A4; assay: CYP3A4 expression in human primary hepatocytes; details: 10 µM, 24 h; for induction of CYP3A4 mRNA: four donors
[3] = target: carboxylesterase HCE2 (Homo sapiens, UniProt O00748); assay: Hydrolysis of pyrethroids by recombinant HCE2; type: in vitro ADME; details: for preference for hydrolysis by HCE2 over HCE1: recombinant HCE2 vs HCE1 lysates, Tris-HCl pH 7.4
Chain of carboxylesterase HCE2 (O00748 27-559): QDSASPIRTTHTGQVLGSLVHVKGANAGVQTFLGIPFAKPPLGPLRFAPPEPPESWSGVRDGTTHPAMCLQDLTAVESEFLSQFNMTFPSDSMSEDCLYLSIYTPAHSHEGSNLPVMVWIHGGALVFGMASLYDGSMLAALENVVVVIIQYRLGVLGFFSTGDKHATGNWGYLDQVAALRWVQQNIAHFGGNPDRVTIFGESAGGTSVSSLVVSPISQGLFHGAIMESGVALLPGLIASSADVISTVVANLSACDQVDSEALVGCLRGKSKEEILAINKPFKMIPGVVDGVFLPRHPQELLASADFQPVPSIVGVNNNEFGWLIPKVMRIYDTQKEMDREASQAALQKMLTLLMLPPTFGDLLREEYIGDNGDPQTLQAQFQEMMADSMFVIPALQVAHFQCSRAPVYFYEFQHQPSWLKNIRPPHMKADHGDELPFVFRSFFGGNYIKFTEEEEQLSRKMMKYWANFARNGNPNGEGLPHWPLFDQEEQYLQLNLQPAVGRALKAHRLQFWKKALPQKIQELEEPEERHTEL

[4] = target: T2, carboxylesterase HCE1 (Homo sapiens, UniProt P23141); assay: Hydrolysis of pyrethroids by recombinant HCE1; type: in vitro ADME; details: for preference for hydrolysis by HCE1 over HCE2 (words): recombinant HCE1 vs HCE2 lysates, Tris-HCl pH 7.4
T2 sequence (P23141 18-567): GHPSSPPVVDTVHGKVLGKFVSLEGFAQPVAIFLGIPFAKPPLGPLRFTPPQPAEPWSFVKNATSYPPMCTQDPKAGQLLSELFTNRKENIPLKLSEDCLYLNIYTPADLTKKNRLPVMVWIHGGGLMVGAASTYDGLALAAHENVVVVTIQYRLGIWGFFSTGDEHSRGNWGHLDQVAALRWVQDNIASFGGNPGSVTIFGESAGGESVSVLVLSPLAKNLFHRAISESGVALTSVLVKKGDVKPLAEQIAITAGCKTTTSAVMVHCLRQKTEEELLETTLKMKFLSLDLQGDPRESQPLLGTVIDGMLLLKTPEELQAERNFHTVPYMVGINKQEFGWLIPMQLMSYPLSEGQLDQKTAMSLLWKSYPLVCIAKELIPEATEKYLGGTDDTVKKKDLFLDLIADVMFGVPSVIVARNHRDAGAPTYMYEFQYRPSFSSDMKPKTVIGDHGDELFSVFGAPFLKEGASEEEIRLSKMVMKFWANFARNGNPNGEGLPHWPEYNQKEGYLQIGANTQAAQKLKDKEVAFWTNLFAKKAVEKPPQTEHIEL

[5] = for hydrolysis by pooled human liver microsomes (rate group / extent, in words): 50 µg protein, pyrethroid 200 µM mixed with equal volume, Tris-HCl pH 7.4, 37°C
[6] = test system: CYP3A4; assay: Metabolism of pyrethroids by recombinant CYP3A4; details: Supersomes 5 pmol P450, pyrethroid 50 µM, NRS, 37°C
[7] = type: in vitro ADME, human; details: ten individual microsomal samples, 100 µM bioallethrin, 30 min
[8] = target: T3, human PXR (Homo sapiens, UniProt O75469); assay: Activation of human PXR in stable line hPXR-HRE; details: 10 µM, 24 h, ratio over DMSO
T3 sequence (O75469 1-434): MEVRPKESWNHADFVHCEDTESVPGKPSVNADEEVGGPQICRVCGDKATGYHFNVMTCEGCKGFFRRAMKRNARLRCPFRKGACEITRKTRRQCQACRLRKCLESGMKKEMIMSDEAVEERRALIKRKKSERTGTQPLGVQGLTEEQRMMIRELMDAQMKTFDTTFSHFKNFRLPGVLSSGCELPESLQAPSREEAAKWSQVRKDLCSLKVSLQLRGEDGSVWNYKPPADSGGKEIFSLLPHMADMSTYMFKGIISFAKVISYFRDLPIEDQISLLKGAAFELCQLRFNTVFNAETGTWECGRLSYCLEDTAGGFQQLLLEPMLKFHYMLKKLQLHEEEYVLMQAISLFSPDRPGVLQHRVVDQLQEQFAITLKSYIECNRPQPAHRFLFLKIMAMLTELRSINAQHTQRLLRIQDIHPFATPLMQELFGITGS

[9] = test system: rats or mice; details: in vivo, po; cited from earlier work
[10] = test system: CYP3A4; assay: CYP3A4 mRNA in cell lines HepG2, Hop92 and LS180; type: cell-based, human; details: 24 h
[11] = target: T4, human PXR variant L412I (Homo sapiens, UniProt O75469, L412I); details: HepG2 cotransfection, 10 µM, 24 h
T4 sequence (O75469 1-434 L412I): T3 sequence (O75469 1-434) with L412I

[12] = target: T5, human PXR variant S208F (Homo sapiens, UniProt O75469, S208F); details: HepG2 cotransfection, 10 µM, 24 h; words: compared with wild-type PXR
T5 sequence (O75469 1-434 S208F): T3 sequence (O75469 1-434) with S208F

[13] = target: T3, human PXR; assay: Activation of human PXR in hPXR-HRE cells transfected with HCE1, HCE2 or vector

## Cc1c(COC(=O)[C@@H]2[C@H](/C=C(\Cl)C(F)(F)F)C2(C)C)cccc1-c1ccccc1 (racemic) [Bifenthrin]
[1]
  activation of rat PXR: efficaciously activated rat PXR
[2]
  induction of CYP3A4 mRNA: ≥ 2.5 fold
[3]
  preference for hydrolysis by HCE2 over HCE1: HCE2 preferably hydrolyzed

## C=CCC1=C(C)C(OC(=O)[C@@H]2[C@@H](C=C(C)C)C2(C)C)CC1=O (stereo partly drawn) [Bioallethrin]
[4]
  preference for hydrolysis by HCE1 over HCE2 (words): HCE1 preferably hydrolyzed
[1]
  activation of rat PXR: 2.0 fold
[5]
  hydrolysis by pooled human liver microsomes (rate group / extent, in words): rapidly hydrolyzed
[5]; pooled human liver microsomes
  hydrolysis rate relative to bifenthrin: 8 times
[2]
  induction of CYP3A4 mRNA: relatively weaker inducers; also recorded: least induction
[6]
  extent of metabolism by CYP3A4: greatest extent
[7]
  variation of overall hydrolysis among individual samples: ~ 2 fold
[8]
  activation of human PXR: activated PXR with less potency

## CC(C)=C[C@@H]1[C@@H](C(=O)OCc2coc(Cc3ccccc3)c2)C1(C)C [Bioresmethrin]
[4]; recombinant HCE1
  hydrolysis by HCE1 relative to esfenvalerate: 7 times
[4]
  preference for hydrolysis by HCE1 over HCE2 (words): hydrolyzed overwhelmingly by HCE1
[4]; listed as bioresmethrin
  preference for hydrolysis by HCE1 over HCE2 (words): HCE1 preferably hydrolyzed
[5]
  hydrolysis by pooled human liver microsomes (rate group / extent, in words): highest extent
[2]
  induction of CYP3A4 mRNA: relatively weaker inducers; also recorded: least induction
[9]
  LD50: 1244 mg/kg
[8]
  activation of human PXR: 1.5 fold

## CC(C)[C@H](C(=O)O[C@H](C#N)c1cccc(Oc2ccccc2)c1)c1ccc(Cl)cc1 [Esfenvalerate]
[4]
  preference for hydrolysis by HCE1 over HCE2 (words): HCE1 preferably hydrolyzed
[10]; HepG2 cells, 0–10 µM
  concentration dependence of CYP3A4 mRNA induction: concentration-dependent manner
  lowest concentration with significant induction of CYP3A4 mRNA: 0.5 µM
[10]; HepG2 cells, 1 µM
  induction of CYP3A4 mRNA in HepG2: significant induction
[10]; Hop92 cells, 1 µM
  induction of CYP3A4 mRNA in Hop92: significant induction
[10]; LS180 cells, 1 µM
  induction of CYP3A4 mRNA in LS180: significant induction
[5]
  hydrolysis by pooled human liver microsomes (rate group / extent, in words): low rate
[11]
  activation of PXR variant L412I compared with wild-type PXR: less extent than the wild-type PXR
[2]
  induction of CYP3A4 mRNA: ≥ 2.5 fold
[12]
  activation of PXR variant S208F: no differences
[9]
  LD50: 325 mg/kg

## CC1(C)[C@H](C=C(Cl)Cl)[C@H]1C(=O)OCc1cccc(Oc2ccccc2)c1 [Per-1, trans-permethrin]
[5]
  hydrolysis by pooled human liver microsomes (rate group / extent, in words): high rate
[3]
  preference for hydrolysis by HCE2 over HCE1: comparably hydrolyzed by both enzymes
[3]; recombinant enzymes
  hydrolysis by HCE2 faster than by HCE1: 15%

## CC1(C)[C@H](C(=O)OCc2cccc(Oc3ccccc3)c2)[C@@H]1C=C(Cl)Cl [Per-2, cis-permethrin]
[5]
  hydrolysis by pooled human liver microsomes (rate group / extent, in words): low rate
[3]; recombinant enzymes
  hydrolysis by HCE2 relative to HCE1: 7 times

## CC1(C)C(C=C(Cl)Cl)C1C(=O)OCc1cccc(Oc2ccccc2)c1 (stereo not drawn) [Permethrin]
[1]
  activation of rat PXR: efficaciously activated rat PXR
[3]
  preference for hydrolysis by HCE2 over HCE1: HCE2 preferably hydrolyzed
[8]
  activation of human PXR: relatively weak activators of human PXR

## CC(C)=CC1C(C(=O)OCN2C(=O)C3=C(CCCC3)C2=O)C1(C)C (stereo not drawn) [Tetramethrin]
[5]; pooled human liver microsomes
  hydrolysis rate relative to tau-fluvalinate: 9 times
[2]
  CYP3A4 protein (Western blotting): slight increase
  induction of CYP3A4 mRNA: relatively weaker inducers; also recorded: minimal induction; also recorded: least induction; also recorded: weakest CYP3A4 inducer
[6]
  extent of metabolism by CYP3A4: greatest extent
[3]
  preference for hydrolysis by HCE2 over HCE1: HCE2 preferably hydrolyzed; also recorded: slightly more active than HCE1
[13]; HCE1 co-transfected cells, 0.5-10 µM
  lowest concentration causing significant activation of PXR, HCE1: 5 µM
[13]; HCE2-cotransfected cells, 0.5-10 µM
  lowest concentration causing significant activation of PXR, HCE2: > 10 µM
[13]; cells cotransfected by the vector, 0.5-10 µM
  lowest concentration causing significant activation of PXR, vector: 1 µM
[13]; hPXR-HRE cells transfected with HCE1 or HCE2 vs vector, 10 µM
  effect of carboxylesterase cotransfection on PXR activation: markedly decreased
[13]; hPXR-HRE cells, 10 µM
  decrease in PXR activation, HCE1 versus HCE2 cotransfection: decreased more PXR activation than HCE1

## CC(C)[C@@H](Nc1ccc(C(F)(F)F)cc1Cl)C(=O)OC(C#N)c1cccc(Oc2ccccc2)c1 (stereo partly drawn) [tau-Fluvalinate]
[5]
  hydrolysis by pooled human liver microsomes (rate group / extent, in words): low rate
[6]
  extent of metabolism by CYP3A4: least extent
[3]
  preference for hydrolysis by HCE2 over HCE1: HCE2 preferably hydrolyzed
[8]
  activation of human PXR: 3.5 fold
